Target: T1, chimeric human H3 receptor (Homo sapiens, UniProt Q9Y5N1, E19D)
T1 construct: made in house; host or cells: Sf9 insect cells (baculovirus infection); P2 membrane preparation
Assay: Chimeric human H3 receptor GTP binding assay (agonist-stimulated GTP-gamma35S binding, Example 7)
Type: biochemical
Conditions: "*" in Ki of Table II; assay of Example 7; read-out: Ki
Summary of the method: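 IC50 values come from non-linear regression of dose-response curves of filter-bound GTP-gamma^35S, counted by scintillation. Membranes were from infected Sf9 cells carrying receptor plus G-protein subunits, 35 μg/tube, with 10 μM GDP present.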

T1 sequence (Q9Y5N1 with tags, fused parts or gaps E19D): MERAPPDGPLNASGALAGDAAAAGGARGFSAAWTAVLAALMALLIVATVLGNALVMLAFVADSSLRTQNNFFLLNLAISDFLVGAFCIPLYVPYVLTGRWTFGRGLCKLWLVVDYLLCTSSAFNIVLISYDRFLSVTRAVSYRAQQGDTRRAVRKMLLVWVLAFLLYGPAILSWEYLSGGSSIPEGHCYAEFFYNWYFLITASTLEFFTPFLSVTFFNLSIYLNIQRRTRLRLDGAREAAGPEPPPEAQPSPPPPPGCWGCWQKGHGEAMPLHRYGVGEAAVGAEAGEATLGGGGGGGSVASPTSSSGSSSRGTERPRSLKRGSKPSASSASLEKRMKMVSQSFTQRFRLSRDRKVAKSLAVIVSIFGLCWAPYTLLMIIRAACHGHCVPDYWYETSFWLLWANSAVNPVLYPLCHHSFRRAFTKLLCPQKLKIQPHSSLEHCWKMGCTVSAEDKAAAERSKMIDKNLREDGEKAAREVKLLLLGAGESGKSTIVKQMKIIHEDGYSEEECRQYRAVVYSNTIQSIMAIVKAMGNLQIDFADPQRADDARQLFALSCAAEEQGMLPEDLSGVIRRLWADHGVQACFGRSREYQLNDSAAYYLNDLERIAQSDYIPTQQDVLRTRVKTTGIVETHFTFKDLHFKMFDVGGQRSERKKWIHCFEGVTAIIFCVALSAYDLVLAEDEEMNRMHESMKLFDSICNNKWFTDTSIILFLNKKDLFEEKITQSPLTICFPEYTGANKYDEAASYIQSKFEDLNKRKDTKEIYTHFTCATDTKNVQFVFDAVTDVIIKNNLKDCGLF

Ki, < 1000 nM:
CC(C)N1CCN(C(=O)CN2CCN(c3ccc(C(F)(F)F)cn3)CC2C)CC1 (stereo not shown) [Compound 445, 1-[2-(4-isopropylpiperazin-1-yl)-2-oxoethyl]-2-methyl-4-[5-(trifluoromethyl)pyridin-2-yl]piperazine]
CC(C)N1CCN(C(=O)CN2CCC(N(C)C)C2)CC1 (stereo not shown) [Compound 446, 1-[2-(4-isopropylpiperazin-1-yl)-2-oxoethyl]-N,N-dimethylpyrrolidin-3-amine]
CCC(C)N1CCN(C(=O)CN2CCC(N3CCCCC3)CC2)CC1 (stereo not shown) [Compound 447]
CCC(C)N1CCN(C(=O)CN2CCC(N3CCC(C)CC3)CC2)CC1 (stereo not shown) [Compound 448, 1′-[2-(4-sec-butylpiperazin-1-yl)-2-oxoethyl]-4-methyl-1,4-bipiperidine]
CCCN(CC1CC1)C1CCN(CC(=O)N2CCN(C(C)CC)CC2)CC1 (stereo not shown) [Compound 449, 1-[2-(4-sec-butylpiperazin-1-yl)-2-oxoethyl]-N-(cyclopropylmethyl)-N-propylpiperidin-4-amine]
CCCN(CCC)C1CCN(CC(=O)N2CCN(C(C)CC)CC2)CC1 (stereo not shown) [Compound 450, 1-[2-(4-sec-butylpiperazin-1-yl)-2-oxoethyl]-N,N-dipropylpiperidin-4-amine]
CC1CN(c2ccc(C(F)(F)F)cn2)CCN1CC(=O)N1CCN(C(C)(C)C)CC1 (stereo not shown) [Compound 451, 1-[2-(4-tert-butylpiperazin-1-yl)-2-oxoethyl]-2-methyl-4-[5-(trifluoromethyl)pyridin-2-yl]piperazine]
O=C(CN1CCN(c2ccc(-c3cc(C(F)(F)F)ccc3Cl)cc2)CC1)N1CCN(C2CCC2)CC1 [Compound 453, 1-[2′-chloro-5′-(trifluoromethyl)biphenyl-4-yl]-4-[2-(4-cyclobutylpiperazin-1-yl)-2-oxoethyl]piperazine]
CC(=O)c1cccc(-c2cnc(N3CCN(CC(=O)N4CCN(C5CCC5)CC4)CC3)cn2)c1 [Compound 454, 1-[3-(5-{4-[2-(4-cyclobutylpiperazin-1-yl)-2-oxoethyl]piperazin-1-yl}pyrazin-2-yl}phenyl]ethanone]
CC(=O)c1cccc(-c2ccc(N3CCN(CC(=O)N4CCN(C5CCC5)CC4)CC3)nn2)c1 [Compound 455, 1-[3-(6-{4-[2-(4-cyclobutylpiperazin-1-yl)-2-oxoethyl]piperazin-1-yl}pyridazin-3-yl)phenyl]ethanone]
O=C(CN1CCN(c2ccc(-c3cc(C(F)(F)F)cc(C(F)(F)F)c3)cc2)CC1)N1CCN(C2CCC2)CC1 [Compound 457, 1-[3′,5′-bis(trifluoromethyl)biphenyl-4-yl]-4-[2-(4-cyclobutylpiperazin-1-yl)-2-oxoethyl]piperazine]
O=C(CN1CCN(c2ccc(-c3ccc4c(c3)OCO4)cc2)CC1)N1CCN(C2CCC2)CC1 [Compound 458, 1-[4-(1,3-benzodioxol-5-yl)phenyl]-4-[2-(4-cyclobutylpiperazin-1-yl)-2-oxoethyl]piperazine]
CC(=O)c1ccc(-c2ccc(N3CCN(CC(=O)N4CCN(C5CCC5)CC4)CC3)nn2)cc1 [Compound 459, 1-[4-(6-{4-[2-(4-cyclobutylpiperazin-1-yl)-2-oxoethyl]piperazin-1-yl}pyridazin-3-yl)phenyl]ethanone]
O=C(CN1CCN(c2ccc(S(=O)(=O)Cc3ccccc3)cc2)CC1)N1CCN(C2CCC2)CC1 [Compound 460, 1-[4-(benzylsulfonyl)phenyl]-4-[2-(4-cyclobutylpiperazin-1-yl)-2-oxoethyl]piperazine]
CC(=O)c1ccc(N2CCN(CC(=O)N3CCN(C4CCC4)CC3)CC2)cc1C(F)(F)F [Compound 461, 1-[4-{4-[2-(4-cyclobutylpiperazin-1-yl)-2-oxoethyl]piperazin-1-yl}-2-(trifluoromethyl)phenyl] ethanone]
CC(=O)c1ccc(N2CCN(CC(=O)N3CCN(C4CCC4)CC3)CC2)c(C(F)(F)F)c1 [Compound 462, 1-[4-{4-[2-(4-cyclobutylpiperazin-1-yl)-2-oxoethyl]piperazin-1-yl}-3-(trifluoromethyl)phenyl] ethanone]

Same assay, conditions: assay of Example 7; symbol * in column headed Ki of Table II; read-out: Ki

Ki, < 1000 nM:
O=C(CN1CCC2(CC1)C(=O)N(c1ccccn1)c1ccccc12)N1CCN(C2CCC2)CC1 [Compound 424, 1′-[2-(4-cyclobutylpiperazin-1-yl)-2-oxoethyl]-1-pyridin-2-ylspiro[indole-3,4′-piperidin]-2(1H)-one]
COc1ccc(CN2C(=O)c3ccccc3C23CCN(CC(=O)N2CCN(C4CCC4)CC2)CC3)c(OC)c1 [Compound 425, 1′-[2-(4-cyclobutylpiperazin-1-yl)-2-oxoethyl]-2-(2,4-dimethoxybenzyl)spiro[isoindole-1,4′-piperidin]-3(2H)-one]
CC(C)N1C(=O)c2ccccc2C12CCN(CC(=O)N1CCN(C3CCC3)CC1)CC2 [Compound 426, 1-[2-(4-cyclobutylpiperazin-1-yl)-2-oxoethyl]-2-isopropylspiro[isoindole-1,4′-piperidin]-3(2H)-one]
CC1CN(c2ccc(C(F)(F)F)cn2)CCN1CC(=O)N1CCN(C2CCC2)CC1 (stereo not shown) [Compound 427, 1-[2-(4-cyclobutylpiperazin-1-yl)-2-oxoethyl]-2-methyl-4-[5-(trifluoromethyl)pyridin-2-yl]piperazine]
CC1CCN(C2CCN(CC(=O)N3CCN(C4CCC4)CC3)CC2)CC1 [Compound 428, 1′-[2-(4-cyclobutylpiperazin-1-yl)-2-oxoethyl]-4-methyl-1,4′-bipiperidine]
COc1ccc(CN2Cc3cccnc3C23CCN(CC(=O)N2CCN(C4CCC4)CC2)CC3)c(OC)c1 [Compound 429, 1-[2-(4-cyclobutylpiperazin-1-yl)-2-oxoethyl]-6′-(2,4-dimethoxybenzyl)-5′,6′-dihydrospiro[piperidine-4,7′-pyrrolo[3,4-b]pyridine]]
COc1cccc(CN2C(=O)c3cccnc3C23CCN(CC(=O)N2CCN(C4CCC4)CC2)CC3)c1 [Compound 430, 1-[2-(4-cyclobutylpiperazin-1-yl)-2-oxoethyl]-6′-(3-methoxybenzyl) spiro[piperidine-4,7-pyrrolo[3,4-b]pyridin]-5′(6′H)-one]
CCCN(CC1CC1)C1CCN(CC(=O)N2CCN(C3CCC3)CC2)CC1 [Compound 431, 1-[2-(4-cyclobutylpiperazin-1-yl)-2-oxoethyl]-N-(cyclopropylmethyl)-N-propylpiperidin-4-amine]
CCCN(CCC)C1CCN(CC(=O)N2CCN(C3CCC3)CC2)CC1 [Compound 432, 1-[2-(4-cyclobutylpiperazin-1-yl)-2-oxoethyl]-N,N-dipropylpiperidin-4-amine]
O=C(CN1CCC2(CC1)C(=O)Nc1ccccc12)N1CCN(C2CCC2)CC1 [Compound 433, 1′-[2-(4-cyclobutylpiperazin-1-yl)-2-oxoethyl]spiro[indole-3,4′-piperidin]-2(1H)-one]
O=C1NC2(CCN(CC(=O)N3CCN(C4CCC4)CC3)CC2)c2ccccc21 [Compound 434, 1′-[2-(4-cyclobutylpiperazin-1-yl)-2-oxoethyl]spiro[isoindole-1,4′-piperidin]-3(2H)-one]
O=C(CN1CCC2(CC1)C(=O)Nc1cccnc12)N1CCN(C2CCC2)CC1 [Compound 435, 1-[2-(4-cyclobutylpiperazin-1-yl)-2-oxoethyl]spiro[piperidine-4,3′-pyrrolo[3,2-b]pyridin]-2′(1′H)-one]
O=C1NC2(CCN(CC(=O)N3CCN(C4CCC4)CC3)CC2)c2ncccc21 [Compound 436, 1-[2-(4-cyclobutylpiperazin-1-yl)-2-oxoethyl]spiro[piperidine-4,7′-pyrrolo[3,4-b]pyridin]-5′(6′H)-one]
O=C(CN1CCC(N2CCCCC2)CC1)N1CCN(C2CCCCC2)CC1 [Compound 437, 1′-[2-(4-cyclohexylpiperazin-1-yl)-2-oxoethyl]-1,4′-bipiperidine]
CC1CN(c2ccc(C(F)(F)F)cn2)CCN1CC(=O)N1CCN(C2CCCCC2)CC1 (stereo not shown) [Compound 438, 1-[2-(4-cyclohexylpiperazin-1-yl)-2-oxoethyl]-2-methyl-4-[5-(trifluoromethyl)pyridin-2-yl]piperazine]
CC1CCN(C2CCN(CC(=O)N3CCN(C4CCCCC4)CC3)CC2)CC1 [Compound 439, 1′-[2-(4-cyclohexylpiperazin-1-yl)-2-oxoethyl]-4-methyl-1,4′-bipiperidine]
CCCN(CC1CC1)C1CCN(CC(=O)N2CCN(C3CCCCC3)CC2)CC1 [Compound 440, 1-[2-(4-cyclohexylpiperazin-1-yl)-2-oxoethyl]-N-(cyclopropylmethyl)-N-propylpiperidin-4-amine]
CCCN(CCC)C1CCN(CC(=O)N2CCN(C3CCCCC3)CC2)CC1 [Compound 441, 1-[2-(4-cyclohexylpiperazin-1-yl)-2-oxoethyl]-N,N-dipropylpiperidin-4-amine]
CC1CN(c2ccc(C(F)(F)F)cn2)CCN1CC(=O)N1CCN(C2CCCC2)CC1 (stereo not shown) [Compound 442, 1-[2-(4-cyclopentylpiperazin-1-yl)-2-oxoethyl]-2-methyl-4-[5-(trifluoromethyl)pyridin-2-yl]piperazine]
CCN(CC)C1CCN(CC(=O)N2CCN(C3CCCC3)CC2)C1 (stereo not shown) [Compound 443, 1-[2-(4-cyclopentylpiperazin-1-yl)-2-oxoethyl]-N,N-diethylpyrrolidin-3-amine]
CN(C)C1CCN(CC(=O)N2CCN(C3CCCC3)CC2)C1 (stereo not shown) [Compound 444, 1-[2-(4-cyclopentylpiperazin-1-yl)-2-oxoethyl]-N,N-dimethylpyrrolidin-3-amine]

From US7851474B2, “Dipiperazinyl ketones and related analogues” (Neurogen Corporation, priority 2005, dated 2010)
